The subject of the assay is MiaPaca-2-iRFP tumors. The experiment in a line: In vivo efficacy, subcutaneous MiaPaca-2-iRFP xenograft, intratumor treatment. The settings on record: nude mice, twice a week, total 7 times. The protocol: FIG. 4A. schematic illustration of tumor inoculation and treatment schedule. Nude mice received subcutaneous (SC) injection of […] MiaPaca2-iRFP on day 0. Starting on week 4, the mice received intratumor injections of PBS, 5FU, RNAOG, RNAOG+5FU, or 5FU-RNAOG twice a week for total 7 times.
FIG. 4B. Tumor progression monitored by LI-COR Imaging of near infrared fluorescence intensity from the MiaPaca2-iRFP cell line that expresses iRFP.
FIG. 4C. Tumor dimensions were also measured for each treatment.
FIG. 4D. The survival curve of each treatment group. **and***indicate p<0.01 and p<0.001, respectively.
The in vitro tumor cell suppression effect of 5FU-RNAOG justified further investigation as to whether the combination of the RNAOG with the anticancer drug 5-fluorouracil (5FU) exerts anti-tumor activity in vivo. The human pancreatic cancer cell line, MiaPaca-2, was used as the model because it forms solid tumors in nude mice upon subcutaneous injection (SC). Specifically, MiaPaca-2 cells were engineered to express near infrared fluorescent protein (iRFP) which allows for real-time monitoring of tumor growth of live animals, especially when the tumor load is low. […] Tumor progression was monitored via the fluorescent intensity of iRFP (FIG. 4B), as well as the directly measured tumor size (FIG. 4C). […]

As for `O=c1[nH]cc(F)c(=O)[nH]1` [5FU, 5-fluorouracil], the “tumor progression (iRFP fluorescence intensity and tumor size)” value was “developed large tumors”.

For the origin of these results see patent US20250090567A1, “5-FU AND RNAOG COMBINED IMMUNOCHEMOTHERAPY FOR PANCREATIC CANCER TREATMENT” (ARIZONA BOARD OF REGENTS ON BEHALF OF ARIZONA STATE …, priority 2022, published 2025).
